Source: patent US20070270403A1 (priority 2003, published 2007)
Read-outs that look alike come from different tables or passages of the source.

Experiments:
DA release in NAcc = test: In vivo microvoltammetry, DA release in NAcc (clozapine studies); design: species or system Sprague-Dawley Rattus Norvegicus; conditions: Subacute, cocaine 10 mg/kg i.p. on Day 1, hr period of study
Experimental: (§1) There is an increasing awareness that a psychosis, similar to that of schizophrenic psychosis, can be derived from cocaine addiction. […] Release mechanisms for monoamines, were determined by using a depolarization blocker, gamma-butyrolactone (γBL). […] Acute and Subacute studies were performed for each treatment group.
(§2) The stereotaxic equipment was purchased from David Kopf Instruments, Tujunga, Calif. A Ag/AgCl reference electrode was placed in contact with dura, 7 mm anteriorally and contralaterally to the indicator microelectrode. A stainless steel auxiliary microelectrode was placed in contact with dura. BRODERICK PROBE® microelectrodes were manufactured on site.
(§3) In vivo microvoltammetric studies on conscious Sprague-Dawley laboratory rats were begun nine to fifteen days after the aseptic surgical operations were performed. On each experimental day, the animal was placed in a Plexiglas-copper faradaic chamber. The three-microelectrode assembly, enclosed within the animal's prosthetic acrylic cap, was connected to a CV37 detector by means of a mercury commutator (Br. Res. Instr., Princeton, N.J.), a flexible cable, and a mating connector (BJM Electronics, Staten Island, N.Y.). The CV37 detector was electrically connected to a Minigard surge suppresser (Jefferson Electric, Magnetek, N.Y.) which was then connected to an electrical ground in isolation. […] Each animal was used as its own control. Changes in synaptic concentrations of DA and 5-HT are presented as percent change (% of control) in order to minimize normal between-animal variations. […] In vivo microvoltammetric scans were recorded in sec and repeated every five min for a period of 2 hrs before each treatment and a period of two hrs after each treatment.
(§4) Potentials were applied with a CV37 detector (BAS, West Lafayette, Ind.). Potentials were applied from −0.2V to +0.4V with respect to a Ag/AgCl (1M NaCl) electrode, at a scan rate of 10 mV/sec at time constants of 5 and 1 tau. One scan was completed in 60 sec. Non-faradaic charging current was eliminated in the first 25 sec.
(§5) Calibration curves were determined experimentally, in vitro, in a freshly prepared deoxygenated physiological saline-phosphate buffer solution (0.01 M, pH=7.4). We use ultra pure Nitrogen (N2) (T. W. Smith Corp., Bklyn, N.Y.) to deoxygenate the buffer solution. […] Calibration studies were also performed in freshly prepared deoxygenated buffer solutions containing phosphotidylethanolamine (PEA), combined with bovine serum albumin (BSA) (Sigma Aldrich, St. Louis, Mo.), a solution which closely mimics brain constituents. […] Detection limits for basal synaptic concentrations of DA and 5-HT in NAcc were 12 nM and 2 nM respectively.

5-HT release in NAcc = test: In vivo microvoltammetry, 5-HT release in NAcc (clozapine studies); design: species or system Sprague-Dawley Rattus Norvegicus
Experimental: as §1, §2, §3, §4, §5

[1] = tested on: Sprague-Dawley laboratory rats; test: Locomotion (ambulations) by infrared photobeams (risperidone studies); assay type: in vivo, Sprague-Dawley Rattus Norvegicus; conditions: Subacute
Experimental: Behaviors were monitored with infrared photobeams which surrounded the faradaic chamber. Open-field behaviors of locomotion (ambulations) and stereotypy (fine movements of sniffing and grooming) were recorded in sec and repeated every five min for a period of 2 hrs before each treatment and a period of 2 hrs after each treatment. Open-field behaviors were monitored simultaneously with in vivo microvoltammetric recordings of monoamines.
The first hr pre-drug, allowed exploratory behavior. Exploratory behavior is defined as open-field behavior of ambulations (forward locomotion) and stereotypy (fine movements of sniffing and grooming), wherein animals respond to the stimuli of a novel environment with a high frequency of behavioral counts. The second hr pre-drug allowed the animal to become habituated before treatment. […] In the acute studies, each drug was administered […]. For the subacute studies, twenty four hrs later, the animals were again placed in the faradaic behavioral chamber and no further drug was administered. Each animal was monitored for possible recovery, withdrawal or after-effects. of each treatment WHILE open-field behaviors of locomotions and stereotypy were monitored with computerized infrared photocell beams which surround the faradaic chamber.
The faradaic chamber was made of plexiglas and covered with copper wire to refract possible electrical artifacts (dimensions: 24 inch (width) by 18 inch (depth) by 23.5 inch (height)). A 16 by 16 array of infrared photobeams, held in place by an aluminum frame, was situated ¾ inch above the Plexiglas floor of the chamber to detect locomotor and stereotypic movements. Photobeams were sampled by a Pentium computer to define the x-y position of the animal within a 1.5 inch resolution every 100 msec. When an x-y position was calculated, it was used to define a particular behavioral parameter. This system is a modified version of an Activity Pattern Monitor (APM) (San Diego Instruments, San Diego, Calif.). Behavioral data is presented in terms of Frequency of Events.
(§6) Neurochemical and behavioral data, derived from the last thirty minutes of the habituation period, provided the baseline data. […] Where appropriate, data points in the time course were subjected to 95% Confidence Limits (C.L.).

[2] = cited from earlier work
[3] = tested on: Sprague-Dawley laboratory rats; test: Locomotor activity (ambulations) by infrared photobeams (clozapine studies); assay type: in vivo, Sprague-Dawley Rattus Norvegicus; conditions: Subacute, cocaine 10 mg/kg i.p. on Day 1
From the text: Locomotor activity (ambulation) was monitored with infrared photobeams at the same time as DA and 5-HT release in NAcc was detected with BRODERICK PROBES® in conjunction with In Vivo Microvoltammetry. The chamber was faradaic, covered with copper to refract possible electrical artifacts (dimensions: 24 in (width) by 18 in (depth) by 23.5 in (height)). A 16 by 16 array of these infrared photobeams, were held in place by an aluminum frame which was situated ¾ in above the Plexiglas floor of the chamber to detect locomotor activity. Photobeams were sampled by a Pentium computer to define the x-y position of the animal within a 1.5 in resolution every 100 msec. When an x-y position was calculated, it was used to define the frequency of locomotor activity in counts. The locomotor activity system is a modified version of an Activity Pattern Monitor (APM) (San Diego Instruments, San Diego, Calif.). Behavioral data is presented in absolute frequency, i.e., number of counts recorded.
The first hr pre-drug allowed exploratory behavior. Exploratory behavior is defined as open-field behavior of ambulations (forward locomotion) wherein animals respond to the stimuli of a novel environment with high frequency of behavioral counts. The second hr pre-drug allowed the animal to become habituated before treatment.
In the Acute studies, each drug was administered at the end of the habituation period. Baseline (control) values were taken every five min for the last thirty min of the habituation period at which time drug injection(s) took place. Electrochemical recordings for DA and 5-HT release in NAcc, were continued for two hrs; at the same time, locomotor behavior continued to be monitored and recorded with infrared photobeams. At the end of the 2 hr drug(s) study, animals were then placed back in their home cages.
In the Subacute studies, which took place twenty-four hrs later, the animals were again placed in the faradaic behavioral chamber and no further drug was administered. Recordings of separate electrochemical signals for DA and 5-HT release in NAcc, were taken for one hr; at the same time, locomotor behavior was monitored and recorded with infrared photobeams.
as §6

SMILES: COC(=O)[C@H]1[C@@H](OC(=O)c2ccccc2)C[C@@H]2CC[C@H]1N2C [Cocaine, cocaine]
- Decrease in DA release on Day 2 compared to drug effect on Day 1 (DA release in NAcc): about 80%
- Maximum decrease in 5-HT below baseline, Subacute (5-HT release in NAcc; 24 hr after cocaine 10 mg/kg i.p.): 40%
- Decrease in 5-HT release on Day 2 compared to drug effect on Day1 (5-HT release in NAcc; Subacute, cocaine 10 mg/kg i.p. on Day 1, second half hour of the study): approximately 150%
- Decrease in locomotor activity frequency on Day 2 compared with drug treatment, Day1 [1]: about 200 counts
- half-life ([2]; i.v. cocaine): 0.5 h
- half-life ([2]; s.c. cocaine): 4 h
- Decrease in locomotor activity on Day 2 compared with Day 1 effects of cocaine [3]: 250 counts
